The subject of the test is PC3 cells. The test can be described thus: PC3 prostate cancer cell proliferation (WST). The class given is cell-based. Conditions: Homo sapiens, PC-3; 72 hours; read-out: IC50 PC3 Proliferation. The procedure: PC3 cells were obtained from the American Type Culture Collection (ATCC, Manassas, Va., Cat.# CRL-1435) Two thousand cells from the prostate cancer line PC3 were placed in 50 μL of complete RPMI 1640 media (Invitrogen, Carlsbad, Calif., Cat.#22400-105) with 10% fetal bovine serum (Invitrogen, Carlsbad, Calif., Cat.#10438-026) into each well of 96 well cell culture plates in a hexaplicate sampling pattern. A 50 μL aliquot of test compound (prepared from stock test compounds in DMSO diluted into media) was added to the appropriate well such that the final concentrations of test compound were 200, 40, 8, 1.6, 0.32, 0.064, 0.0128, 0.00256, and 0 μM and the final DMSO concentration was less than or equal to 0.2%.
The plates were incubated for 72 hours 37° C. in an atmosphere of 5% CO2. At the end of this time a 10 μL aliquot of WST solution (Roche Applied Science, Mannheim, Germany) was added into each of the wells. Cells were exposed to the WST solution for 4 hours. A SpectraMax Plus spectrophotometric plate reader (Molecular Devices, Sunnydale, Calif.) was then used to measure the optical density at 450 nm (OD450 nm). Sigmoidal curves were drawn for the dose responses and IC50 values were calculated using the software package GraphPad Prism4 (GraphPad Software, Inc., San Diego, Calif.).

For `O=c1cc(N2CCOCC2)oc2c(-c3ccc(Br)cc3)csc12` [Compound 101], the IC50 was 21.8 µM.

Turning to `O=C(NCc1ccccc1)c1ccc(-c2csc3c(=O)cc(N4CCOCC4)oc23)cc1` [Compound 50, N-benzyl-4-(5-morpholino-7-oxo-7H-thieno[3,2-b]pyran-3-yl)benzamide], the IC50 worked out at 4.76 µM.

For the compound `COc1cccc(-c2csc3c(=O)cc(N4CCOCC4)oc23)c1` [Compound 29], the IC50 stood at 4.76 µM.

With `O=c1cc(N2CCOCC2)oc2c(-c3cccc(Cl)c3)csc12` [Compound 85, 3-(3-chlorophenyl)-5-morpholino-7H-thieno[3,2-b]pyran-7-one], the IC50 came to 3.45 µM.

In the case of `O=C(Nc1cccc(-c2csc3c(=O)cc(N4CCOCC4)oc23)c1)c1cccnc1` [Compound 46], the IC50 is 62.1 µM.

Consider `O=C(Nc1ccncc1)c1ccc(-c2csc3c(=O)cc(N4CCOCC4)oc23)cc1` [Compound 59], for which the IC50 is 17.5 µM.

`O=C(O)c1ccc(-c2csc3c(=O)cc(N4CCOCC4)oc23)cc1` [Compound 100]: the IC50 stood at 129 µM.

Regarding `O=C(NCCN1CCOCC1)c1csc2c(=O)cc(N3CCOCC3)oc12` [Compound 90], the IC50 amounted to 19.9 µM.

Take `CCN(CC)C(=O)c1csc2c(=O)cc(N3CCOCC3)oc12` [Compound 52]: the IC50 turned out to be 157 µM.

`O=C(NCc1ccccc1)c1cccc(-c2csc3c(=O)cc(N4CCOCC4)oc23)c1` [Compound 63]: the IC50 came to 7.84 µM.

Turning to `O=c1cc(N2CCOCC2)oc2c(C#Cc3ccsc3)csc12` [Compound 23], the IC50 turned out to be 7.35 µM.

Regarding `O=c1cc(N2CCOCC2)oc2c(-c3cccs3)csc12` [Compound 14], the IC50 was determined as 4.36 µM.

For `COc1cc(-c2csc3c(=O)cc(N4CCOCC4)oc23)ccc1N` [Compound 95], the IC50 worked out at 81.9 µM.

With `COc1ccc(-c2csc3c(=O)cc(N4CCOCC4)oc23)cc1` [Compound 8], the IC50 came out at 1.82 µM.

Take `O=c1cc(N2CCOCC2)oc2c(-c3cccc(O)c3)csc12` [Compound 99]: the IC50 was found to be 16.6 µM.

For `O=c1cc(N2CCOCC2)oc2c(-c3ccsc3)csc12` [Compound 26], the IC50 came to 5.6 µM.

Take `CN(C(=O)OC(C)(C)C)c1ccc(-c2csc3c(=O)cc(N4CCOCC4)oc23)cc1` [Compound 36]: the IC50 is 2.69 µM.

Take `COc1cc(C#Cc2csc3c(=O)cc(N4CCOCC4)oc23)cc(OC)c1` [Compound 40]: the IC50 turned out to be 1.8 µM.

In the case of `COC(=O)c1scc(-c2csc3c(=O)cc(N4CCOCC4)oc23)c1O` [Compound 21, methyl 3-hydroxy-4-(5-morpholino-7-oxo-7H-thieno[3,2-b]pyran-3-yl)thiophene-2-carboxylate], the IC50 was found to be 34.8 µM.

Consider `O=C(NCc1ccccc1)c1csc2c(=O)cc(N3CCOCC3)oc12` [Compound 53], for which the IC50 came to 113 µM.

As to `CN(C)c1ccc(NC(=O)c2cccc(-c3csc4c(=O)cc(N5CCOCC5)oc34)c2)cc1` [Compound 65], the IC50 was found to be 12.7 µM.

For the compound `O=c1cc(N2CCOCC2)oc2c(-c3ccc(C(F)(F)F)cc3)csc12` [Compound 20], the IC50 was determined as 774 µM.

In the case of `Cc1ccc(-c2csc3c(=O)cc(N4CCOCC4)oc23)cc1` [Compound 15], the IC50 was 4.48 µM.

For the compound `O=c1cc(N2CCOCC2)oc2c(C#Cc3ccccc3)csc12` [Compound 31, 5-morpholino-3-(phenylethynyl)-7H-thieno[3,2-b]pyran-7-one], the IC50 amounted to 3.69 µM.

Regarding `O=C(NCCN1CCOCC1)c1cccc(-c2csc3c(=O)cc(N4CCOCC4)oc23)c1` [Compound 42], the IC50 was 7.84 µM.

As to `S=c1cc(N2CCOCC2)oc2c(-c3ccccc3)cccc12` [Compound 68, 2-morpholino-8-phenyl-4H-chromene-4-thione], the IC50 is 34.8 µM.

As to `O=c1cc(N2CCOCC2)oc2c(-c3ccoc3)csc12` [Compound 27], the IC50 came to 9.26 µM.

Consider `O=c1cc(N2CCOCC2)oc2c(-c3cccc(C(F)(F)F)c3)csc12` [Compound 92], for which the IC50 worked out at 6.28 µM.

Take `COC(=O)c1ccc(-c2csc3c(=O)cc(N4CCOCC4)oc23)cc1` [Compound 44]: the IC50 was 4.39 µM.

For the compound `O=c1cc(N2CCOCC2)oc2c(-c3cccnc3)csc12` [Compound 3, 5-morpholino-3-(pyridin-3-yl)-7H-thieno[3,2-b]pyran-7-one], the IC50 was 10.9 µM.

Regarding `Cc1cccc(-c2csc3c(=O)cc(N4CCOCC4)oc23)c1` [Compound 16], the IC50 is 6.03 µM.

Consider `O=c1cc(N2CCOCC2)oc2c(C#CCO)csc12` [Compound 24], for which the IC50 stood at 28.2 µM.

Take `Nc1cccc(C#Cc2csc3c(=O)cc(N4CCOCC4)oc23)c1` [Compound 96]: the IC50 came to 24.8 µM.

For `O=c1cc(N2CCOCC2)oc2c(-c3ccc4cc[nH]c4c3)csc12` [Compound 35], the IC50 lay in the range of 2.7 to 5.59 µM.

Turning to `O=C(Nc1ccccc1)c1csc2c(=O)cc(N3CCOCC3)oc12` [Compound 51, 5-morpholino-7-oxo-N-phenyl-7H-thieno[3,2-b]pyran-3-carboxamide], the IC50 was 23.8 µM.

Consider `COC(=O)c1cccc(-c2csc3c(=O)cc(N4CCOCC4)oc23)c1` [Compound 45], for which the IC50 came out at 4.67 µM.

Turning to `O=C(Nc1cccnc1)c1ccc(-c2csc3c(=O)cc(N4CCOCC4)oc23)cc1` [Compound 58], the IC50 worked out at 16.7 µM.

As to `O=c1cc(N2CCOCC2)oc2c(-c3ccc(Cl)cc3)csc12` [Compound 17, 3-(4-chlorophenyl)-5-morpholino-7H-thieno[3,2-b]pyran-7-one], the IC50 came to 29 µM.

Regarding `CN(C)c1ccc(C(=O)Nc2cccc(-c3csc4c(=O)cc(N5CCOCC5)oc34)c2)cc1` [Compound 49], the IC50 was 3.18 µM.

On to `O=C(Nc1ccccn1)c1ccc(-c2csc3c(=O)cc(N4CCOCC4)oc23)cc1` [Compound 61], for which the IC50 is 5 µM.

For the compound `O=c1cc(N2CCOCC2)oc2c(-c3ccncc3)csc12` [Compound 2], the IC50 is 18.5 µM.

With `O=c1cc(N2CCOCC2)oc2c(-c3cc4ccccc4[nH]3)csc12` [Compound 12], the IC50 came to 8.55 µM.

Consider `O=c1cc(N2CCOCC2)oc2c(-c3ccc(O)c(Cl)c3)csc12` [Compound 93], for which the IC50 lay in the range of 6.14 to 9.43 µM.

With `O=c1cc(N2CCOCC2)oc2c(-c3ccc(O)cc3)csc12` [Compound 98], the IC50 came out at 6.12 µM.

Turning to `CN1CCOc2cc(-c3csc4c(=O)cc(N5CCOCC5)oc34)ccc21` [Compound 22], the IC50 was 1.05 µM.

As for `O=c1cc(N2CCOCC2)oc2c(-c3ccc(Cl)c(Cl)c3)csc12` [Compound 18], the IC50 amounted to 37.6 µM.

As to `O=C(Nc1ccncc1)c1cccc(-c2csc3c(=O)cc(N4CCOCC4)oc23)c1` [Compound 64], the IC50 came to 17.9 µM.

Regarding `O=c1cc(N2CCOCC2)oc2c(-c3ccc(Cl)nc3)csc12` [Compound 32], the IC50 was 9.01 µM.

Regarding `CN(C)c1ccc(C#Cc2csc3c(=O)cc(N4CCOCC4)oc23)cc1` [Compound 37], the IC50 is 2.5 µM.

Regarding `O=c1cc(N2CCOCC2)oc2c(C#Cc3cccc(F)c3)csc12` [Compound 39], the IC50 is 3.31 µM.

Take `O=c1cc(N2CCOCC2)oc2c(Cc3ccccc3)csc12` [Compound 1]: the IC50 was determined as 20.2 µM.

In the case of `CNc1ccc(-c2csc3c(=O)cc(N4CCOCC4)oc23)cc1` [Compound 41], the IC50 was found to be 2.07 µM.

Take `O=c1cc(N2CCOCC2)oc2c(-c3ccc4c(c3)OCO4)csc12` [Compound 7]: the IC50 came to 1.74 µM.

The values above are taken from patent US9981983B2, “Thienopyranones as kinase inhibitors” (SignalRx Pharmaceuticals, Inc., priority 2008, dated 2018).
